From patent EP3858357A1, “USE OF AZOLE COMPOUNDS TO STIMULATE THE IMMUNE SYSTEM AND AS INHIBITORS FOR S-PLA2GIB” (Diaccurate, priority 2020, dated 2021)
pIC50: −log10 of the molar value.

How the values were obtained:
sPLA2hGX = biological target: T1, sPLA2hGX (Homo sapiens, UniProt O15496); assay: Inhibition of sPLA2hGX enzymatic activity (method of Rouault et al., 2006); format: biochemical; conditions: 3-300 µM tested; Figure 2B
T1 sequence (O15496 43-165): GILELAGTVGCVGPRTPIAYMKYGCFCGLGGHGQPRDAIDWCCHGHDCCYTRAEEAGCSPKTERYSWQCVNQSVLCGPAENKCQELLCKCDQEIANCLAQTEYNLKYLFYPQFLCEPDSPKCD

sPLA2hGIIA = biological target: T2, sPLA2hGIIA (Homo sapiens, UniProt P14555); assay: Inhibition of sPLA2hGIIA enzymatic activity (method of Rouault et al., 2006); format: biochemical; conditions: 3-300 µM tested; Figure 2B
T2 sequence (P14555 21-144): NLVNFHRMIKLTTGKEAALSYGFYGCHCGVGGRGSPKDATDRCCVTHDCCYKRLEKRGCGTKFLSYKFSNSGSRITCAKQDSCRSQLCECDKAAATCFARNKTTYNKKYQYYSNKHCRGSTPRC

sPLA2hGIB = sPLA2hGIB (Homo sapiens, UniProt P04054); assay: Inhibition of sPLA2hGIB enzymatic activity, [3H]oleate-labelled E. coli membranes (method of Rouault et al., 2006); format: biochemical; conditions: sPLA2hGIB (2 pM) pre-incubated with 10, 30, 100, 300 µM; Figure 2A
Source text: (§1) • Figure 1: Screening of the inhibition of sPLA2hGIB enzymatic activity by small molecules previously identified by in silico screening. 0% represents non-specific hydrolysis in the absence of sPLA2hGIB, and 100 % represents sPLA2hGIB activity with DMSO (1 %). […] The condition 'no hGIB' (0%) represents the non-specific hydrolysis of phospholipids present in E. coli membranes radio-labeled with [^3H]oleate. […] HA-tagged receptors are in the presence of sPLA2hGIB or sPLA2hGIIF, then in the presence of a specific biotinylated anti-sPLA2 antibody; "acceptor" beads are coupled to an anti-HA antibody (PerkinElmer) and "donor" beads are coupled to Streptavidine (PerkinElmer).
The condition 'no hGIB' (0%) represents the non-specific hydrolysis of phospholipids present in E. coli membranes radio-labeled with [^3H]oleate.

[1] = biological target: binding between mPLA2R1 receptor and sPLA2hGIB (Homo sapiens, UniProt P04054); assay: AlphaLISA-based competition test of sPLA2hGIB binding to soluble HA-tagged mPLA2R1; conditions: decrease of binding between mPLA2R1 and sPLA2hGIB; Figure 3B
Source text: as §1
The inventors have developed and used an AlphaLISA®-based test (Figure 3A) capable of detecting binding between the soluble form of mPLA2R1 (which includes the whole extracellular part), and sPLA2hGIB. […]
HA-tagged receptors are in the presence of sPLA2 of interest, then in the presence of a specific biotinylated anti-sPLA2 antibody; "acceptor" beads are coupled to an anti-HA antibody (PerkinElmer) and "donor" beads are coupled to Streptavidine (PerkinElmer). The binding of a HA-tagged receptor and a sPLA2 of interest in solution, results in a proximity of donor and acceptor beads, allowing for energy transfer and the production of a light signal, which is then measured.

sPLA2hGV = sPLA2hGV (Homo sapiens, UniProt P39877); assay: Inhibition of sPLA2hGV enzymatic activity (method of Rouault et al., 2006); format: biochemical; conditions: 3-300 µM tested; Figure 2B
Chain of sPLA2hGV (P39877 21-138): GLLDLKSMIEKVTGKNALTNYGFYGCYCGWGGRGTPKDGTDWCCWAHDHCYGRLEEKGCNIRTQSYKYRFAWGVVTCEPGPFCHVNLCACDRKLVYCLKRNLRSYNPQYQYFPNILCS

Chain of sPLA2hGIB (P04054 23-148): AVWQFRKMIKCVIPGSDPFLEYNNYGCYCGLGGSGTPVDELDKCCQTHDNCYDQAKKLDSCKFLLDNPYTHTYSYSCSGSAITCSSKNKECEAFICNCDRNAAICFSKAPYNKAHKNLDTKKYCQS
Chain of binding between mPLA2R1 receptor and sPLA2hGIB (P04054 23-148): as above

pIC50 (sPLA2hGX): ~3.82
pIC50 (sPLA2hGIIA): < 3.52
pIC50 (sPLA2hGIB): 3.82 to 4.00
pIC50 [1]: ~4.00
pIC50 (sPLA2hGV): < 3.52
Structure (SMILES): CC(C)N1CCN(c2ccc(OCC3COC(Cn4cncn4)(c4ccc(Cl)cc4Cl)O3)cc2)CC1 [Terconazole, 1-{[(2S,4S)-2-(2,4-dichlorophenyl)-4-{[p-(4-isopropyl-1-piperazinyl)phenoxy]methyl}-1,3-dioxolan-2-yl]methyl}-1H-1,2,4-azole]
